Assay results reported in patent US10064839B2, “Methods of treating liver diseases” (Zafgen, Inc., priority 2012, dated 2018).

Test system: diet induced obese mice (C57BL6)
Assay: Diet induced obese mice, 10 days oral 30 mg/kg: body weight and serum cholesterol
Assay type: in vivo, mouse
Settings: DIO C57BL6 mice, 30 mg/kg oral gavage; for Cholesterol Change: serum
Description: Compounds were tested in diet induced obese mice (C57BL6) that were on a 65% high fat diet for 8-10 weeks. Mice were dosed for 10 days by oral gavage with 30 mg/kg of the compounds listed. Their body weights were recorded along with serum chemistries including cholesterol.

Row | Structure (SMILES) | Body Weight Change [%] | Cholesterol Change
1 | CCN(CC)C/C=C\c1ccccc1S(=O)(=O)Cc1ccc(-c2ccoc2)c(OC)c1C(=O)O | −6.0 | No change
2 | CCN(CC)C/C=C\c1cc(F)ccc1S(=O)(=O)Nc1ccc2c(c1C(=O)O)OCc1occc1-2 | −7.0 | −35%
